Laboratory results published in ChEMBL document CHEMBL1137522, “Two new phenylpiperazines with atypical antipsychotic potential” (Bioorg Med Chem Lett, 2007).
The source made the active and inactive calls. No cut-off for these calls is given here.

Key:
[1] = species: Mus musculus; experiment: Antagonist effect on amphetamine-induced hyperlocomotion in CPU mouse by open field test; format: functional, organism-based
[2] = tested on: Rattus norvegicus; experiment: Induction of catalepsy in Mill Hill hooded rat at 10 mg/kg after 30-180 min; format: organism-based; design: dose 10 mg/kg; settings: in vivo
[3] = molecular target: D(2) dopamine receptor (Rattus norvegicus, UniProt P61169); experiment: Binding affinity at dopamine D2 receptor in rat striatal membranes; format: cell membranes, Striatum, Membrane
[4] = molecular target: 5-hydroxytryptamine receptor 2A (Rattus norvegicus, UniProt P14842); experiment: Binding affinity at 5HT2A receptor in rat striatal membranes; format: cell membranes, Striatum, Membrane
[5] = Binding affinity at adrenergic alpha 1 receptor in rat striatal membranes; format: cell membranes, Striatum, Membrane
[6] = molecular target: T1, 5-hydroxytryptamine receptor 1A (Rattus norvegicus, UniProt P19327); experiment: Binding affinity at 5HT1A receptor in rat striatal membranes; format: cell membranes, Striatum, Membrane
T1 sequence (P19327 whole entry): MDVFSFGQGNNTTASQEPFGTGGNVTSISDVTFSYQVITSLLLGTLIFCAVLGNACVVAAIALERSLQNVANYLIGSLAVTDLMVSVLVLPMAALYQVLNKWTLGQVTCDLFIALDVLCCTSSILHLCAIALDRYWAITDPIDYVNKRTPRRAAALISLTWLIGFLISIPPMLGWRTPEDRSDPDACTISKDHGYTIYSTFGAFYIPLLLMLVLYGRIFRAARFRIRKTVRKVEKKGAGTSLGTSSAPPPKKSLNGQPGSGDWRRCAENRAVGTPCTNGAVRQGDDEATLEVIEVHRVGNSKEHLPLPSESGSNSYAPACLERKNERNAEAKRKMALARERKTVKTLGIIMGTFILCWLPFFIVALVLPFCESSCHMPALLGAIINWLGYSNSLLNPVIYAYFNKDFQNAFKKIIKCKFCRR

5-hydroxytryptamine receptor 2A, sequence (P14842 whole entry): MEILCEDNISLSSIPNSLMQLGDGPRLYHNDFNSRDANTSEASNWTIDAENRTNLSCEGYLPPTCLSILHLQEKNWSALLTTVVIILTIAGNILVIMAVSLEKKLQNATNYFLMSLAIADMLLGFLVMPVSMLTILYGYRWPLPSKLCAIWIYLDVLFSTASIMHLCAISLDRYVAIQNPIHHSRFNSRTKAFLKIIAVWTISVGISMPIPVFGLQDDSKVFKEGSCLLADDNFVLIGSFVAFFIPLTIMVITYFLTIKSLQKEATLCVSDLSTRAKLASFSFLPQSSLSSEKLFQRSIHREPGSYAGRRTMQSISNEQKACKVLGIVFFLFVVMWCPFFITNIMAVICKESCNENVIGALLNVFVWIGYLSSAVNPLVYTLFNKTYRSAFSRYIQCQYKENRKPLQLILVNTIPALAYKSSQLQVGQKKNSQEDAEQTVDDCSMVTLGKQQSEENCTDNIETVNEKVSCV
D(2) dopamine receptor, sequence (P61169 whole entry): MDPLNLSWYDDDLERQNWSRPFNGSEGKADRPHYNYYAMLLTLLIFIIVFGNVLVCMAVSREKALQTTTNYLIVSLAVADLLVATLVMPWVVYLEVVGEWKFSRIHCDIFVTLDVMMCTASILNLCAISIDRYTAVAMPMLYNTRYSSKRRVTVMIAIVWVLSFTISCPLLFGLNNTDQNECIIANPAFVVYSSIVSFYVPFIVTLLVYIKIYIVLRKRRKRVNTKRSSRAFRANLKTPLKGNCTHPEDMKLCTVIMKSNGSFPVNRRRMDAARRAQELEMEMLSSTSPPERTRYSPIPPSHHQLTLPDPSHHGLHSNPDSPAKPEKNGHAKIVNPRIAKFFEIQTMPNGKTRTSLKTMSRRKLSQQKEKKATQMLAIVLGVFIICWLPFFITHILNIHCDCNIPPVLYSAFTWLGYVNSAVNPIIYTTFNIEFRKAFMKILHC

Structure (SMILES)	Ki [3]	Ki [4]	Log Ki [5]	Ki [6]	Activity [1]	Activity [2]
FC(F)(F)c1cccc(N2CCN(CCCOc3ccc4[nH]c(=S)[nH]c4c3)CC2)c1	363 nM	316 nM	-6.31	100 nM	–	–
CN1CCN(C2=Nc3cc(Cl)ccc3Nc3ccccc32)CC1 [CLOZAPINE]	–	–	-7.65	–	–	–
c1ccc(N2CCN(CCCOc3ccc4[nH]cnc4c3)CC2)cc1	75.9 nM	13.8 nM	-7.58	646 nM	Active	Not Active

Continued by falling Ki [3], values first:

Ki [3]	Ki [4]	Log Ki [5]	Ki [6]	Structure (SMILES)	Activity [1]	Activity [2]
41.7 nM	2.04 nM	-7.53	933 nM	S=c1[nH]c2ccc(OCCCN3CCN(c4ccccc4)CC3)cc2[nH]1	Active	Not Active
15.1 nM	102 nM	-6.92	389 nM	FC(F)(F)c1cccc(N2CCN(CCCOc3ccc4[nH]cnc4c3)CC2)c1	–	–
8.71 nM	79.4 nM	-8.23	15.1 nM	COc1ccccc1N1CCN(CCCOc2ccc3[nH]cnc3c2)CC1	–	–
1.7 nM	19.1 nM	-8.71	178 nM	COc1ccccc1N1CCN(CCCOc2ccc3[nH]c(=S)[nH]c3c2)CC1	–	–
